Source: patent US20220371986A1, “METHOD TO GENERATE BIOCHEMICALLY REACTIVE AMINO ACIDS” (The Regents of the University of California, priority 2019, published 2022)

Assays:
Type in all cases: cell-based
[1] = tested on: E. coli; assay: E. coli growth in presence of FSY; details: 1 mM FSY in growth media
[2] = tested on: HeLa cells; assay: Toxicity and cell morphology of FSY in HeLa cells
[3] = tested on: 293T cells; assay: Toxicity of FSY to 293T cells
[4] = tested on: HeLa-EGFP-182TAG reporter cells; assay: FACS analysis of Uaa incorporation into HeLa-EGFP-182TAG reporter cells; details: flow cytometry; positive control AzF with plasmid pIre-Azi3
Experimental: FSY incorporation into proteins in mammalian cells was tested. HeLa-EGFP-182TAG reporter cells were transfected with plasmid pMP-FSYRS-3×tRNA, which expresses FSYRS and tRNA^Pyl genes. Wang et al, Nat. Neurosci., 10:1063-1072 (2007). Suppression of the 182TAG codon would produce full-length EGFP rendering cells fluorescent. After transfection, cells were incubated with FSY of various concentrations at 37° C. for 24 or 48 h followed by flow cytometry. Strong EGFP fluorescence was measured from cells only when FSY was added. The fluorescence intensity increased with FSY concentration and incubation time. As a positive control, p-azido-L-phenylalanine (AzF) was incorporated into reporter cells in parallel using plasmid pIre-Azi3, which is the most efficient Uaa incorporation system in mammalian cells in our hands. […] No fluorescence signal was detected when FSY was not added.
FACS analysis of Uaa incorporation into HeLa-GFP-182TAG reporter cells: One day before transfection, 4.5×10^4 HeLa-EGFP-182TAG reporter cells (Wang et al, Nat. Neurosci., 10:1063-1072 (2007)) were seeded in a Greiner bio-one 24 well-cell culture dish containing 500 μL of DMEM media with 10% FBS, and incubated at 37° C. in a CO2 incubator. […] The cells were resuspended in 300 μL of FACS buffer (1×PBS, 2% FBS, 1 mM EDTA, 0.1% sodium azide, 0.28 μM DAPI) and analyzed by BD LSRFortessa™ cell analyzer.

SMILES: N[C@@H](Cc1ccc(OS(=O)(=O)F)cc1)C(=O)O [FSY, fluorosulfate-L-tyrosine]
- cytotoxicity (E. coli growth) [1]: no obvious cytotoxicity
- toxicity to HeLa cells ([2]; FSY incubation 24 or 48 h): no obvious toxicity
- cell morphology (fluorescence confocal microscopy) ([2]; HeLa-EGFP-182TAG reporter cells in the presence of FSY): cell morphology remained normal
- toxicity to 293T cells [3]: no obvious toxicity
- Uaa incorporation (EGFP fluorescence) relative to the AzF level [4]: 76%
